Source: ChEMBL document CHEMBL1156013, “Pharmacophore-guided lead optimization: the rational design of a non-zinc coordinating, sub-micromolar inhibitor of the botulinum neurotoxin serotype a metalloprotease” (Bioorg Med Chem Lett, 2009)
pIC50, pKi: −log10 of the molar value.

Columns and labels:
[1] = target: Botulinum neurotoxin type A (Clostridium botulinum, UniProt P0DPI0); test: Inhibition of Clostridium botulinum neurotoxin A light chain by HPLC-based assay
[2] = target: Botulinum neurotoxin type A (Clostridium botulinum) (UniProt P0DPI0); test: Inhibition of Clostridium botulinum neurotoxin A light chain at 20 uM by HPLC-based assay
Sequence of Botulinum neurotoxin type A (Clostridium botulinum) (P0DPI0 2-448 limits assumed): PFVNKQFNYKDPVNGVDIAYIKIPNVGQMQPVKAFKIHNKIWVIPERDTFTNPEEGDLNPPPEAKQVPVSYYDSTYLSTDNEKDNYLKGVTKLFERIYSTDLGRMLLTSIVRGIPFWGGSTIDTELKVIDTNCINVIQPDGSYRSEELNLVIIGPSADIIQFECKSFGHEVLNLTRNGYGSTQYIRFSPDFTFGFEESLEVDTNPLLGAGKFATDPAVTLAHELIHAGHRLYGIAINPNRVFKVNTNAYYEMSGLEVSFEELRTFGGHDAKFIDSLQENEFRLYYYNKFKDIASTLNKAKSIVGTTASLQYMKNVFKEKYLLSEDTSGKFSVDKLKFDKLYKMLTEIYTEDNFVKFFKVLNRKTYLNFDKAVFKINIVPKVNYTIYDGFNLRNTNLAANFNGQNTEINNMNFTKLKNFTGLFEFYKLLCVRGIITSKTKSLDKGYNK

Sequence of Botulinum neurotoxin type A (P0DPI0 2-448 limits assumed): as above

SMILES | pKi [1] | inhibition [2] | pIC50 [1]
N=C(N)c1ccc(Oc2ccc(-c3cc4ccc(/C(N)=N/CCCNc5ccnc6cc(Cl)ccc56)cc4[nH]3)cc2)cc1 | 6.22 | 95% | –
N=C(N)c1ccc(Oc2ccc(-c3cc4ccc(C(=N)N)cc4[nH]3)cc2)cc1 | 5.00 | – | 5.52
N=C(N)c1ccc2cc(-c3ccc(Oc4ccc(/C(N)=N/CCCNc5ccnc6cc(Cl)ccc56)cc4)cc3)[nH]c2c1 | 6.22 | 95% | –
Clc1ccc2c(NCCCNCCCNc3ccnc4cc(Cl)ccc34)ccnc2c1 | – | 60% | –
